Test results published in ChEMBL document CHEMBL1147023, “(R)-sila-venlafaxine: a selective noradrenaline reuptake inhibitor for the treatment of emesis” (Bioorg Med Chem Lett, 2006).
Active and inactive are the calls of the source. The rule behind the calls is not given here.

How the values were obtained:
[1] = Inhibitory activity against site 2 of sodium channel by radioligand […] assay
[2] = tested on: Mustela putorius furo; test: Activity against morphine-induced emesis in ferret at 1 mg/kg; assay type: functional, organism-based; parameters: dose 1 mg/kg
[3] = tested on: Mustela putorius furo; test: Activity against morphine-induced emesis in ferret at 50 mg/kg; assay type: functional, organism-based; parameters: dose 50 mg/kg
[4] = target: Sodium-dependent noradrenaline transporter (Homo sapiens, UniProt P23975); test: Inhibition of noradrenaline reuptake at human recombinant noradrenaline transporter
Sodium-dependent noradrenaline transporter, sequence (P23975 whole entry): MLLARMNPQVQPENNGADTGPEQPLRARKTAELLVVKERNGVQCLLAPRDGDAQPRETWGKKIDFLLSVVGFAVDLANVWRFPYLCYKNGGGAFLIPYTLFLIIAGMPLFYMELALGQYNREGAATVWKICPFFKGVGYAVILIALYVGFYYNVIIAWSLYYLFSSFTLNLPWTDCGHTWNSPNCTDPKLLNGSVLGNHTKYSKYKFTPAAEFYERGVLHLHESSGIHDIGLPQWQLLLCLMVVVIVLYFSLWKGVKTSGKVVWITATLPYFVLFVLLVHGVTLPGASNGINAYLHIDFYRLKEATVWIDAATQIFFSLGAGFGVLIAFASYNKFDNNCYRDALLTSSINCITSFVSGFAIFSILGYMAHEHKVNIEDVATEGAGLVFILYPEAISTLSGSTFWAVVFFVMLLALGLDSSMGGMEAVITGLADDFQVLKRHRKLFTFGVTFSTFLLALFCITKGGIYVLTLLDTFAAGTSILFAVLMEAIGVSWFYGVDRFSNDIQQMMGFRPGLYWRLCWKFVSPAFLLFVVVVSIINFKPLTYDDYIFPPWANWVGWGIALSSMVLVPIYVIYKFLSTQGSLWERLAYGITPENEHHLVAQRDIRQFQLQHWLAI

[5] = tested on: Mustela putorius furo; test: Inhibition of morphine-induced emesis in ferret at 5 mg/kg; assay type: functional
[6] = target: Sodium-dependent serotonin transporter (Homo sapiens, UniProt P31645); test: Inhibition of serotonin reuptake at human recombinant serotonin transporter
Sodium-dependent serotonin transporter, sequence (P31645 whole entry): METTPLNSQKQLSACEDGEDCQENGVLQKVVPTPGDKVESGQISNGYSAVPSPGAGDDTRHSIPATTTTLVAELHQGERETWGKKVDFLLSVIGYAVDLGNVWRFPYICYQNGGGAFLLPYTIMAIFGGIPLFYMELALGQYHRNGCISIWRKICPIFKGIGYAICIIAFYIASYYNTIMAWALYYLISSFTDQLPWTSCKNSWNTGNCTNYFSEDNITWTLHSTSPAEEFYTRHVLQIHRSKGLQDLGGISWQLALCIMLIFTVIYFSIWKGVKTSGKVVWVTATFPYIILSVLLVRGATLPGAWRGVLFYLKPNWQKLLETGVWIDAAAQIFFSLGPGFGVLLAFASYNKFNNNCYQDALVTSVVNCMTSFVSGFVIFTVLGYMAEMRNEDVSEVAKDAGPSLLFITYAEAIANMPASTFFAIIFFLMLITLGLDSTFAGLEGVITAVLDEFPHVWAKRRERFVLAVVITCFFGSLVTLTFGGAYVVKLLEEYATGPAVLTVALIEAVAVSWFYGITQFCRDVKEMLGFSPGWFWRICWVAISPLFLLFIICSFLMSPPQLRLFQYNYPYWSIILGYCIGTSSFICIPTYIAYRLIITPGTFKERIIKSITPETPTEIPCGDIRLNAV

[7] = target: T1, Voltage-gated L-type calcium channel (Homo sapiens, UniProt Q13936+Q13698+Q01668+O60840); test: Inhibition of verapamil sensitive L type calcium channel by radioligand […] assay; assay type: protein assay
[8] = target: T1, Voltage-gated L-type calcium channel; test: Inhibition of diltiazem sensitive L type calcium channel by radioligand […] assay; assay type: protein assay
[9] = Plasma half life in ferret at 5 mg/kg, po; assay type: ADME, organism-based, Mustela putorius furo; parameters: dose 5 mg/kg, route oral
[10] = Cmax in ferret at 5 mg/kg, po; assay type: ADME, organism-based, Mustela putorius furo; parameters: dose 5 mg/kg, route oral; settings: in vivo

COc1ccc([C@H](CN(C)C)[Si]2(O)CCCCC2)cc1
IC50 [1]: 5.1 µM | Activity [2]: inactive | Activity [3]: Active | IC50 [4]: 0.2 µM | inhibition in vivo at 5 mg/kg [5]: 93% | IC50 [6]: 4.2 µM | IC50 [7]: 8.6 µM | IC50 [8]: 2.7 µM | half-life [9]: 1.1 h | Cmax [10]: 225 ng/mL
